Molecular target: T1, TAAR3 (Mus musculus, UniProt Q5QD16)
T1 construct: transiently expressed with Galpha-olf in HEK293 cells
T1 sequence (Q5QD16 1-343): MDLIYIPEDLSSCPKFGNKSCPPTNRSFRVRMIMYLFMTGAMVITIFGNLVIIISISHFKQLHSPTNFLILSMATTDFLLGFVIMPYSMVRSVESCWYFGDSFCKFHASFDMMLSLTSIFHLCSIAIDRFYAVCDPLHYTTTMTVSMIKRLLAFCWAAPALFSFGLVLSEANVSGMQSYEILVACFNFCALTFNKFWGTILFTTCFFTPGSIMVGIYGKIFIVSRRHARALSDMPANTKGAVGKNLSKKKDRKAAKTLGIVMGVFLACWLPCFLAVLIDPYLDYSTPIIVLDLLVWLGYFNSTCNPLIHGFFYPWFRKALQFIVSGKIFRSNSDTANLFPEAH
Experiment: cAMP accumulation, HEK293 cells, luminescence
Format: cell-based

CC(C)CN [isobutylamine]
EC50: 32 nM

Source: paper PMC6104183, “How Female Mice Attract Males: A Urinary Volatile Amine Activates a Trace Amine-Associated Receptor That Induces Male Sexual Interest” (Frontiers in Pharmacology, 2018)
